According to publication PMC12990037, “Discovery of Two Structurally Distinct Classes of Inhibitors Targeting the Nuclease MUS81 and Enhancing Efficacy of Chemotherapy in Cancer Cells” (Journal of Medicinal Chemistry, 2026):

Assays:
[1] = tested on: MUS81; parameters: method as in PMID 37352577; details: FRET-based DNA cleavage assay; cited from earlier work
[2] = tested on: U2OS, HEK293, and CAL51; assay: Cell proliferation assay (CyQUANT), combination with cisplatin; format: cell-based; details: cisplatin alone, 5 days
Procedure: 7 MUS81 inhibitors synergize with cisplatin to reduce cancer cell viability. (A,B) U2OS cells were treated with DMSO, MU262, or MU876 at the indicated concentrations in combination with a range of cisplatin (0–5 μM) for 96–120 h. Cell viability was assessed by the Cy-Quant assay. The survival was normalized to the DMSO-treated control. Graphs were generated in Graphpad Prism using the nonlinear regression fitting model. n ≥ 3, error bars represent s.d. (C) CAL51 WT cells were treated with DMSO, MU262, or MU876 at the indicated concentrations at each passage over 2 weeks. Cisplatin (12 μM) was added for the last 24 h before harvest. DNA damage was assessed by quantifying γH2AX foci using fluorescence microscopy and CellProfiller software. Data were visualized plotted in R software. Red markers represent the median of γH2AX foci number per nucleus; blue markers represent the percentage of cells with ≥20 γH2AX foci per nucleus. n = 3, error bars represent s.d.; ****p <0.0001 (unpaired, two-tailed t-test). TEXT PRINTED IN THE PICTURE: (C) D: γH2AX foci: 2.4 (DMSO); γH2AX foci: 59.6 (Cisplatin) | (C) MU262: γH2AX foci: 2.3 (1 μM; DMSO); γH2AX foci: 3 (2 μM; DMSO); γH2AX foci: 55.4 (1 μM; Cisplatin); γH2AX foci: 43.2 (2 μM; Cisplatin) | (C) MU876: γH2AX foci: 2.8 (0.25 μM; DMSO); γH2AX foci: 0.9 (0.5 μM; DMSO); γH2AX foci: 48.2 (0.25 μM; Cisplatin); γH2AX foci: 42.6 (0.5 μM; Cisplatin) DOUBTS OF THE COPYIST ABOUT THIS PICTURE: Panel C: the numbers in the blue markers have no measure or unit of their own printed in the picture; the axis title 'γH2AX foci' is given as the measure, but the numbers may stand for another quantity. / Panel C: 'D' is a control column with no concentration; it may not count as a substance. / Panel C: small white print on blue markers; 59.6, 55.4, 48.2, 43.2, 42.6, 2.8 and 0.9 are best readings (3, 5, 6, 8 and 9 are hard to tell apart).
CAL51 WT, CAL51 MUS81^–/–, U2OS, and HEK293 cells were seeded in a 96-well plate and treated with the respective concentration of selected inhibitors. […]

## O=C(N/N=C/c1cc(O)c(O)cc1O)c1cc2ccccc2cc1O [Dyngo-4a]
[1]
  IC50: 570 nM

## N.N.[Cl][Pt][Cl] [cisplatin, reference compound]
[2]
  cell viability: dose-dependent decrease of viability
